Assay results published in ChEMBL document CHEMBL3992518, “Peptide Macrocycle Inhibitor of Coagulation Factor XII with Subnanomolar Affinity and High Target Selectivity” (J Med Chem, 2017).
Calls of active or inactive are those of the source. The calls are words filed in the database; no cut-off is given here. *1 amine or outer side, *2 acyl side, *3 side chain or, on linkers, in order; H or OH if unused. Where a SMILES comes first, the peptide text is derived from it. Bridges are numbered along the chain shown (N, C = ends). [ ]: non-standard residue; d: D form. TATA = O=C(CC[*:1])N1CN(C(=O)CC[*:2])CN(C(=O)CC[*:3])C1; Phe(4-guanidino) = N=C(N)Nc1ccc(C[C@H](N)C(=O)O)cc1

Experiments:
Coagulation factor XII = target: T1, Coagulation factor XII (Homo sapiens, UniProt P00748); assay: Inhibition of human beta factor 12a using fluorogenic substrate Boc-Gln-Gly-Arg-AMC preincubated for 10 mins followed by addition of substrate measured every min for 30 mins
T1 sequence (P00748 whole entry): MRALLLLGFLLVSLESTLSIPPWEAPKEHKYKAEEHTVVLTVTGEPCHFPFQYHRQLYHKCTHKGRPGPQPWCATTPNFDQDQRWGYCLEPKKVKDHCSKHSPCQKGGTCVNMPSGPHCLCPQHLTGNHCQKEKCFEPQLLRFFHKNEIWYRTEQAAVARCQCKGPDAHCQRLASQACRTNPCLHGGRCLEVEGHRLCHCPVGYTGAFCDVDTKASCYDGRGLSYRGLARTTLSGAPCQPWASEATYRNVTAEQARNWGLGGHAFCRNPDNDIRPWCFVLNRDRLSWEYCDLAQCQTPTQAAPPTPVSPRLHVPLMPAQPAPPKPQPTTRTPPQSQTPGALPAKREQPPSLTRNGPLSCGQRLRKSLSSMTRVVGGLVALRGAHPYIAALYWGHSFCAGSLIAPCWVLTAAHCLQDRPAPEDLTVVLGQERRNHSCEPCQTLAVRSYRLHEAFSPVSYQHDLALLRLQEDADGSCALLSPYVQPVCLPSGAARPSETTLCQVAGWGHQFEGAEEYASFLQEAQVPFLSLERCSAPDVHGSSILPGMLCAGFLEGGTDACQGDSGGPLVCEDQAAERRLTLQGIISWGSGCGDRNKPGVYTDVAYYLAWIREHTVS

[1] = Half life in human citrated plasma at 10 uM by mass spectrophotometric analysis; type: ADME, cell-free
Homo sapiens = species: Homo sapiens; assay: Inhibition of human trypsin at 40 uM using fluorogenic substrate Z-Gly-Gly-Arg-AMC
Plasma kallikrein = Plasma kallikrein (Homo sapiens, UniProt P03952); assay: Inhibition of human plasma kallikrein at 40 uM using fluorogenic substrate Z-Phe-Arg-AMC
Chain of Plasma kallikrein (P03952 20-390 limits assumed): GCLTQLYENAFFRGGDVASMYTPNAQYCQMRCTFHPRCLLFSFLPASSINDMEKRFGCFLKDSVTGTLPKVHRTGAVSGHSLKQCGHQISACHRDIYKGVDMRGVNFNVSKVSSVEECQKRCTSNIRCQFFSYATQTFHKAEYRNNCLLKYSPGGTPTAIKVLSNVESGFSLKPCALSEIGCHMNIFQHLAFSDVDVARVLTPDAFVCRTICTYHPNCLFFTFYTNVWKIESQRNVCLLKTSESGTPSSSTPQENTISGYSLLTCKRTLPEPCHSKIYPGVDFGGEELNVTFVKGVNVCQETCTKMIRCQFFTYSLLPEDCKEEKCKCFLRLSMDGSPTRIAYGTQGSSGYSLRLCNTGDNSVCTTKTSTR
Chain of Plasma kallikrein (P03952 391-638 limits assumed): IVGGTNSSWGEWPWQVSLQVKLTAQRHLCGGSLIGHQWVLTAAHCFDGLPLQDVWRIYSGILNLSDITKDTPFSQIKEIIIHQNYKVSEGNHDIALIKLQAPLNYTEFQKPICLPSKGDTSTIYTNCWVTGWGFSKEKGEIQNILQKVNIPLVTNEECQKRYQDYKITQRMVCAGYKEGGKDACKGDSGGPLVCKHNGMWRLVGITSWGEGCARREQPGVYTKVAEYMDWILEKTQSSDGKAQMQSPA

Plasma [2] = assay: Anticoagulant activity in human plasma assessed as concentration required to double activated partial thromboplastin time by coagulation analyser; type: functional
Plasma [3] = assay: Anticoagulant activity in human plasma assessed as change in prothrombin time up to 40 uM by coagulation analyser; type: functional, cell-free

Ki (Coagulation factor XII) [nM] | SMILES | also measured
72 | CCC[C@@H]1NC(=O)[C@H](CCC(N)=O)NC(=O)[C@H](CCCNC(=N)N)NC(=O)[C@@H]2CSCCC(=O)N3CN(CN(C3)C(=O)CCSC[C@H](NC(=O)[C@@H](N)CCCNC(=N)N)C(=O)N[C@@H](Cc3ccccc3)C(=O)N[C@@H](CCCNC(=N)N)C(=O)N[C@@H](CC(C)C)C(=O)N3CCC[C@H]3C(=O)N2)C(=O)CCSC[C@@H](C(=O)N[C@@H](CCCNC(=N)N)C(=O)N[C@@H](Cc2c[nH]c3ccccc23)C(=O)O)NC(=O)[C@H](CCCNC(=N)N)NC1=O | –
380 | CC(C)C[C@@H]1NC(=O)[C@H](CCC(N)=O)NC(=O)[C@H](CCCNC(=N)N)NC(=O)[C@@H]2CSCCC(=O)N3CN(CN(C3)C(=O)CCSC[C@H](NC(=O)[C@@H](N)CCCNC(=N)N)C(=O)N[C@@H](Cc3ccccc3)C(=O)N[C@@H](Cc3ccc(NC(=N)N)cc3)C(=O)N[C@@H](CC(C)C)C(=O)N3CCC[C@H]3C(=O)N2)C(=O)CCSC[C@@H](C(=O)N[C@@H](CCCNC(=N)N)C(=O)N[C@@H](Cc2c[nH]c3ccccc23)C(=O)O)NC(=O)[C@H](CCCNC(=N)N)NC1=O (H-RCF[Phe(4-guanidino)]LPCRQLRCRW-OH; linker 2-7-12 via TATA) | –
310 | CC[C@H](C)[C@@H]1NC(=O)[C@@H](NC(=O)[C@@H](N)CCCNC(=N)N)CSCCC(=O)N2CN3CN(C2)C(=O)CCSC[C@H](NC(=O)[C@@H]2CCCN2C(=O)[C@H](CC(C)C)NC(=O)[C@H](CCCNC(=N)N)NC1=O)C(=O)N[C@@H](CCCNC(=N)N)C(=O)N[C@@H](CCC(N)=O)C(=O)N[C@@H](CC(C)C)C(=O)N[C@@H](CCCNC(=N)N)C(=O)N[C@H](C(=O)N[C@@H](CCCNC(=N)N)C(=O)N[C@@H](Cc1c[nH]c2ccccc12)C(=O)O)CSCCC3=O (H-RCIRLPCRQLRCRW-OH; linker 2-7-12 via TATA) | –
15 | CC(C)C[C@@H]1NC(=O)[C@H](CCC(N)=O)NC(=O)[C@H](CCCNC(=N)N)NC(=O)[C@@H]2CSCCC(=O)N3CN(CN(C3)C(=O)CCSC[C@@H](C(=O)N[C@@H](CCCNC(=N)N)C(=O)O)NC(=O)[C@H](CCCNC(=N)N)NC1=O)C(=O)CCSC[C@H](NC(=O)[C@H](N)Cc1ccc(NC(=N)N)cc1)C(=O)N[C@@H](Cc1ccccc1)C(=O)N[C@@H](CCCNC(=N)N)C(=O)N[C@@H](CC(C)C)C(=O)N1CCC[C@H]1C(=O)N2 | half-life at 10 µM [1]: 13 h
9.3 | CC(C)C[C@@H]1NC(=O)[C@H](CCC(N)=O)NC(=O)[C@H](CCCNC(=N)N)NC(=O)[C@@H]2CSCCC(=O)N3CN(CN(C3)C(=O)CCSC[C@H](NC(=O)[C@@H](N)CCCNC(=N)N)C(=O)N[C@@H](Cc3ccccc3)C(=O)N[C@@H](CCCNC(=N)N)C(=O)N[C@@H](CC(C)C)C(=O)N3CCC[C@H]3C(=O)N2)C(=O)CCSC[C@@H](C(=O)O)NC(=O)[C@H](CCCNC(=N)N)NC1=O (H-RCFRLPCRQLRC-OH; linker 2-7-12 via TATA) | –
0.84 | CC(C)C[C@@H]1NC(=O)[C@H](CCC(N)=O)NC(=O)[C@H](CCCNC(=N)N)NC(=O)[C@@H]2CSCCC(=O)N3CN(CN(C3)C(=O)CCSC[C@H](NC(=O)[C@@H](N)CCCNC(=N)N)C(=O)N[C@@H](Cc3ccc(F)cc3)C(=O)N[C@@H](CCCNC(=N)N)C(=O)N[C@@H](CC(C)C)C(=O)N3CCC[C@H]3C(=O)N2)C(=O)CCSC[C@@H](C(=O)N[C@@H](CCCNC(=N)N)C(=O)O)NC(=O)[C@H](CCCNC(=N)N)NC1=O | inhibition (Homo sapiens): Active; inhibition (Plasma kallikrein): Active; 2aPTT (Plasma [2]): 1.6 µM; Activity (Plasma [2]): Dose-dependent effect; Activity (Plasma [3]): inactive
